In patent US20100320428A1, “GASEOUS DIELECTRICS WITH LOW GLOBAL WARMING POTENTIALS” (priority 2006, published 2010):
Counter-ions that a name gives are not always drawn. Like-named read-outs stand apart in the source and are kept apart here.

How the values were obtained:
[1] = boiling point; Table 2, preferred dielectric compounds; cited from earlier work
[2] = Dielectric strength by ASTM D2477; assay type: physicochemical; settings: 1 atmosphere pressure, 0.1 inch gap, ambient temperature; ASTM D2477 or from literature
[3] = Breakdown voltage at maximum system pressure; assay type: physicochemical; settings: for Breakdown voltage at maximum pressure: at maximum pressure: 5 atmospheres (73.5 psia), or lower pressure at which the gas liquefies; for Breakdown voltage compared with air: 1 atmosphere and maximum system pressure
[4] = gas phase; cited from earlier work
[5] = normal state; cited from earlier work
[6] = atmospheric pressure; cited from earlier work

Compound	MY BP [1]	other results
CC(N)C(=O)O (racemic) [DL-2-aminopropanoic acid]	−50.2 °C	–
FCC(F)(F)F [1,1,1,2-Tetrafluoroethane]	−26.1 °C	–
FC(F)(F)C#CC(F)(F)F [1,1,1,4,4,4-hexafluoro-2-butyne]	−24.6 °C	–
FC(F)C(F)F [1,1,2,2-Tetrafluoroethane]	−23.0 °C	–
O=C(C(=O)C(F)F)C(F)F [1,1,4,4-tetrafluoro-butane-2,3-dione]	−81.0 °C	–
C#CC(F)(F)F [3,3,3-trifluoro-propyne]	−48.0 °C	–
N [Ammonia]	−33.3 °C	–
FCF [Difluoromethane]	−51.7 °C	–
FC(F)OC(F)(F)F [Difluoromethyl trifluoromethyl ether]	−35.3 °C	–
CC [Ethane]	−88.6 °C	–
COC(F)(F)F [Ether, methyl trifluoromethyl]	−24.0 °C	–
CCF [Fluoroethane]	−37.7 °C	–
FC(F)C(F)(F)F [Gas R125, Pentafluoroethane]	–	Dielectric strength [2]: 6.4 kV/0.1 inch gap; Breakdown voltage at maximum pressure [3]: 32 kV/0.1 inch gap
FCC(F)(F)F [Gas R134a, 1,1,1,2-Tetrafluoroethane]	–	Dielectric strength [2]: 6.6 kV/0.1 inch gap; Breakdown voltage at maximum pressure [3]: 33 kV/0.1 inch gap
CC(F)(F)F [Gas R143a, 1,1,1-Trifluoroethane]	–	Dielectric strength [2]: 5.8 kV/0.1 inch gap; Breakdown voltage at maximum pressure [3]: 29 kV/0.1 inch gap
CC(F)F [Gas R152a, 1,1-Difluoroethane]	–	Dielectric strength [2]: 5.9 kV/0.1 inch gap; Breakdown voltage at maximum pressure [3]: 29.5 kV/0.1 inch gap
Cl [HCl, hydrogen chloride]	–	Breakdown voltage compared with air [3]: greater then air
FC(F)(F)C(F)(F)F [Hexafluoroethane]	−78.2 °C	–
Cl [Hydrogen chloride]	−85.0 °C	–
N#N [Nitrogen]	−195.8 °C	–
[N-]=[N+]=O [Nitrous oxide]	−88.5 °C	–
FC(F)(F)C(F)(F)C(F)(F)F [Octafluoropropane]	−36.7 °C	–
FS(F)(F)(F)(F)F [SF6, Sulfur hexafluoride]	–	Temperature below which it does not decompose [4]: ≥ 500 °C; Dielectric strength [2]: 14.0 kV/0.1 inch gap; Toxicity [5]: non-toxic; Breakdown voltage compared with air [6]: nearly three times higher than air; Breakdown voltage at maximum pressure [3]: 70 kV/0.1 inch gap
F[Si](F)(F)F [SiF4, silicon tetrafluoride]	–	Breakdown voltage compared with air [3]: greater then air
FC(F)(F)F [Tetrafluoromethane]	−128.1 °C	–
N#CC(F)(F)F [Trifluoroacetonitrile]	−68.8 °C	–
FC(F)F [Trifluoromethane]	−82.1 °C	–
O=CC(F)(F)F [trifluoroacetaldehyde]	−21.0 °C	–
FC(F)(F)S [trifluoromethane thiol]	−36.7 °C	–
